This note sets out measurements from PubChem BioAssay (NCI).

Some test systems named below: SF-539 CNS; UO-31 renal; CCRF-CEM leukemia; SF-268 CNS; TK-10 renal; SK-OV-3 ovarian; U251 CNS; OVCAR-3 ovarian; SK-MEL-28 melanoma; CAKI-1 renal.
Assay in all cases: DTP human tumour cell line panel, 48 h

Molecules are shown by their SMILES.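 Compound exposure: 48 hours, 5 concentrations, 96-well plates. At the GI50, growth is halved. The concentration for full growth arrest is given as TGI.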

Usually GI50 stands for the concentration at which growth is held to half of that of the control. The term TGI denotes the concentration giving total growth inhibition. High values mean less potent growth arrest, low ones more potent growth arrest.

Take `Cc1c(Nc2nccc3cc(CN4CC[C@@H](O)C4)cnc23)cccc1-c1cccc(-c2nc3cc(CN4CC[C@@H](C(=O)O)C4)cc(C#N)c3o2)c1C`: the GI50 in the assay on SF-539 CNS is 5.9 µM; in the assay on UO-31 renal it was 4.7 µM; with CCRF-CEM leukemia, 3.2 µM; with SF-268 CNS it was 10.9 µM; in the assay with TK-10 renal, 20.5 µM; in the assay with SK-OV-3 ovarian, greater than 100 µM. The GI50 in the assay on U251 CNS is 12.1 µM; in the assay on OVCAR-3 ovarian, 14.8 µM; with SK-MEL-28 melanoma, 11.6 µM; in the assay on CAKI-1 renal, greater than 100 µM. Besides, the TGI in the assay with SF-539 CNS was 28.1 µM; with UO-31 renal, greater than 100 µM; in the assay with CCRF-CEM leukemia it was greater than 100 µM; with SF-268 CNS, greater than 100 µM; in the assay with TK-10 renal, greater than 100 µM; with SK-OV-3 ovarian, greater than 100 µM. Further, the TGI was 26.8 µM in the assay on U251 CNS, greater than 100 µM in the assay with OVCAR-3 ovarian, 27.8 µM in the assay on SK-MEL-28 melanoma and greater than 100 µM in the assay on CAKI-1 renal.
In the case of `Fc1ccc2c(c1)C1=C(CCC2)C(c2ccc(Cl)cc2)NC(=S)N1` (stereo not given), the GI50 is 37.6 µM in the assay on SF-539 CNS; 16.9 µM in the assay on UO-31 renal; 31.8 µM with CCRF-CEM leukemia; 83.8 µM in the assay on SF-268 CNS; 12.6 µM with TK-10 renal; greater than 100 µM in the assay with SK-OV-3 ovarian. The GI50 was 54.7 µM with U251 CNS, 27.8 µM with OVCAR-3 ovarian, 78 µM in the assay on SK-MEL-28 melanoma and 51.7 µM in the assay on CAKI-1 renal. Further, the TGI in the assay with SF-539 CNS is greater than 100 µM; in the assay with UO-31 renal, greater than 100 µM; in the assay with CCRF-CEM leukemia it was greater than 100 µM; in the assay with SF-268 CNS, greater than 100 µM; in the assay with TK-10 renal it was 80.3 µM; in the assay on SK-OV-3 ovarian, greater than 100 µM. In addition, the TGI with U251 CNS, in the assay with OVCAR-3 ovarian, in the assay with SK-MEL-28 melanoma and in the assay with CAKI-1 renal was greater than 100 µM throughout.
For the molecule `CCN1CCN(c2cc(C(=O)Nc3cccc(Nc4ccc5c(OC)cccc5n4)c3)cc(C(F)(F)F)c2)CC1`, the GI50 in the assay with SF-539 CNS is 3.28 µM; with UO-31 renal it was 0.746 µM; in the assay on CCRF-CEM leukemia it was 0.758 µM; with SF-268 CNS it was 1.76 µM; in the assay on TK-10 renal, 3.47 µM; in the assay on SK-OV-3 ovarian it was 4.6 µM. Moreover, the GI50 in the assay on U251 CNS is 1.36 µM; in the assay with OVCAR-3 ovarian it was 3.41 µM; in the assay with SK-MEL-28 melanoma it was 0.846 µM; in the assay on CAKI-1 renal, 0.917 µM. Moreover, the concentration for total growth inhibition (TGI) in the assay on SF-539 CNS was found to be 7.31 µM; in the assay on UO-31 renal, 3.88 µM; in the assay with CCRF-CEM leukemia, 2.06 µM; in the assay with SF-268 CNS, 7.41 µM; in the assay with TK-10 renal, 8.02 µM; in the assay with SK-OV-3 ovarian, 11 µM. The TGI was 4.94 µM in the assay on U251 CNS, 9.04 µM with OVCAR-3 ovarian, 2.2 µM in the assay with SK-MEL-28 melanoma and 4.97 µM with CAKI-1 renal.
On to `COC(=O)/C(C#N)=C1\CCC(OC)N1C` (stereo not given), for which the total growth inhibition concentration (TGI) with SF-539 CNS, in the assay on UO-31 renal, in the assay with CCRF-CEM leukemia, in the assay on SF-268 CNS, in the assay with TK-10 renal and with SK-OV-3 ovarian was greater than 100 µM throughout. The TGI in the assay on U251 CNS, in the assay with OVCAR-3 ovarian, in the assay on SK-MEL-28 melanoma and in the assay with CAKI-1 renal was greater than 100 µM each time.
Turning to `Cc1ccc(N2C(=O)/C(=C/c3ccc(N(CCC#N)CCC#N)cc3)N=C2COc2ccc(Cl)cc2Cl)cc1`, the TGI in the assay on SF-539 CNS, in the assay with UO-31 renal, in the assay on CCRF-CEM leukemia, with SF-268 CNS, with TK-10 renal and in the assay with SK-OV-3 ovarian was greater than 100 µM each time. Further, the TGI with U251 CNS, in the assay with OVCAR-3 ovarian, with SK-MEL-28 melanoma and with CAKI-1 renal was greater than 100 µM each time.
As for `CN1CCN(CCCOc2ccc3nc(Nc4ccc(F)c(F)c4)ccc3c2)CC1`, the GI50 is 1.8 µM in the assay with SF-539 CNS; 1.68 µM in the assay with UO-31 renal; 1.95 µM in the assay on CCRF-CEM leukemia; 2.45 µM in the assay on SF-268 CNS; 2 µM with TK-10 renal; 2.59 µM with SK-OV-3 ovarian. The GI50 in the assay with U251 CNS is 1.69 µM; in the assay with OVCAR-3 ovarian it was 2.11 µM; in the assay with SK-MEL-28 melanoma, 1.56 µM; in the assay on CAKI-1 renal, 1.67 µM. Moreover, the TGI was 3.73 µM in the assay with SF-539 CNS; 3.43 µM in the assay with UO-31 renal; 11.6 µM in the assay with CCRF-CEM leukemia; 8.31 µM in the assay with SF-268 CNS; 4.23 µM in the assay with TK-10 renal; 6.9 µM in the assay with SK-OV-3 ovarian. Moreover, the TGI was found to be 3.64 µM in the assay on U251 CNS, 6.37 µM with OVCAR-3 ovarian, 3.2 µM in the assay with SK-MEL-28 melanoma and 3.95 µM in the assay on CAKI-1 renal.
For `COc1cc2c(cc1OC)C(C(CBr)CBr)N(C1CCCC1)CC2` (stereo not given), the TGI in the assay with SF-539 CNS, in the assay on UO-31 renal, in the assay with CCRF-CEM leukemia, in the assay with SF-268 CNS, with TK-10 renal and in the assay on SK-OV-3 ovarian was greater than 100 µM throughout. The TGI in the assay on U251 CNS, in the assay with OVCAR-3 ovarian, with SK-MEL-28 melanoma and in the assay with CAKI-1 renal was greater than 100 µM in each case.
On to `CC(/C=C/C(=O)c1sc(C(N)=S)nc1C)=C\c1ccccc1`, for which the TGI in the assay on SF-539 CNS, in the assay with UO-31 renal, with CCRF-CEM leukemia, in the assay with SF-268 CNS, in the assay with TK-10 renal and with SK-OV-3 ovarian was greater than 100 µM each time. Further, the TGI with U251 CNS was greater than 100 µM; in the assay with OVCAR-3 ovarian, greater than 100 µM; in the assay with SK-MEL-28 melanoma, greater than 100 µM; in the assay with CAKI-1 renal, 56.4 µM.
For `COc1cc(S(=O)(=O)Nc2nc(-c3ccc(N4C(=O)C(C)SC4c4ccccc4O)cc3)cs2)ccc1Cl` (stereo not given), the GI50 with SF-539 CNS was 32.6 µM; in the assay with UO-31 renal it was 37.2 µM; with CCRF-CEM leukemia, 5.55 µM; in the assay on SF-268 CNS, 41.4 µM; in the assay on TK-10 renal, 97.6 µM; in the assay on SK-OV-3 ovarian it was 50.6 µM. In addition, the GI50 is 32.8 µM in the assay on U251 CNS, 35.6 µM in the assay on OVCAR-3 ovarian, 39.5 µM in the assay on SK-MEL-28 melanoma and 67.7 µM with CAKI-1 renal. The TGI with SF-539 CNS, in the assay with UO-31 renal, with CCRF-CEM leukemia, in the assay on SF-268 CNS, with TK-10 renal and in the assay on SK-OV-3 ovarian was greater than 100 µM throughout. The TGI with U251 CNS, in the assay with OVCAR-3 ovarian, in the assay with SK-MEL-28 melanoma and with CAKI-1 renal was greater than 100 µM in each case.
Regarding `CC(C)=Cc1cc(C)c2ccc(C)c3c2c1C(C)=C(O)C3=O`, the GI50 in the assay on SF-539 CNS is 32 µM; in the assay on UO-31 renal, 23.5 µM; in the assay with CCRF-CEM leukemia it was 4.45 µM; in the assay with SF-268 CNS, 0.0856 µM; in the assay with TK-10 renal, 44.6 µM; in the assay with SK-OV-3 ovarian it was 27.4 µM. The GI50 in the assay on U251 CNS is 17.9 µM; in the assay on OVCAR-3 ovarian it was 15.6 µM; with SK-MEL-28 melanoma it was 0.933 µM; in the assay with CAKI-1 renal it was 23.8 µM. Also, the TGI is 79.5 µM with SF-539 CNS; greater than 100 µM in the assay on UO-31 renal; 19.7 µM in the assay with CCRF-CEM leukemia; greater than 100 µM in the assay with SF-268 CNS; greater than 100 µM with TK-10 renal; 81.2 µM in the assay on SK-OV-3 ovarian. Besides, the TGI was 56.4 µM in the assay on U251 CNS, 49.2 µM in the assay on OVCAR-3 ovarian, greater than 100 µM in the assay with SK-MEL-28 melanoma and 65.9 µM in the assay with CAKI-1 renal.
Turning to `COc1cc(OC)c2c(=O)cc(-c3ccccc3OCc3ccccc3)oc2c1OC`, the GI50 is 12.4 µM in the assay with SF-539 CNS; greater than 100 µM with UO-31 renal; 3.18 µM in the assay on CCRF-CEM leukemia; 18.7 µM with SF-268 CNS; 6.56 µM with TK-10 renal; 98 µM with SK-OV-3 ovarian. Besides, the GI50 with U251 CNS was 9.59 µM; with OVCAR-3 ovarian, 4.15 µM; in the assay on SK-MEL-28 melanoma, 12.7 µM; in the assay with CAKI-1 renal, 3.21 µM. Besides, the TGI in the assay on SF-539 CNS is 40 µM; in the assay with UO-31 renal it was greater than 100 µM; in the assay on CCRF-CEM leukemia, 67.7 µM; in the assay with SF-268 CNS, 73.7 µM; with TK-10 renal, 34.9 µM; in the assay with SK-OV-3 ovarian, greater than 100 µM. For the same molecule, the TGI in the assay with U251 CNS is greater than 100 µM; in the assay on OVCAR-3 ovarian, 16.5 µM; in the assay on SK-MEL-28 melanoma, 46.5 µM; in the assay on CAKI-1 renal, 24.2 µM.
Regarding `O=C1NC(=O)C(c2cccc(Cl)c2)=C1Nc1ccc(Cl)c(C(=O)O)c1`, the GI50 with SF-539 CNS, with UO-31 renal, in the assay with CCRF-CEM leukemia, in the assay with SF-268 CNS, in the assay with TK-10 renal and in the assay on SK-OV-3 ovarian was greater than 25 µM in each case. Moreover, the GI50 with U251 CNS, in the assay on OVCAR-3 ovarian, in the assay on SK-MEL-28 melanoma and in the assay with CAKI-1 renal was greater than 25 µM in each case. For the same molecule, the total growth inhibition concentration (TGI) in the assay with SF-539 CNS, in the assay with UO-31 renal, with CCRF-CEM leukemia, with SF-268 CNS, with TK-10 renal and in the assay on SK-OV-3 ovarian was greater than 25 µM throughout. In addition, the TGI in the assay with U251 CNS, in the assay with OVCAR-3 ovarian, with SK-MEL-28 melanoma and with CAKI-1 renal was greater than 25 µM throughout.
